Experiments:
Assay in all cases: microbe, parasite or virus in culture
Assay type in all cases: cell-based
[1] = tested on: Septoria tritici; settings: Zymoseptoria tritici, 168 h
[2] = tested on: Phytophthora infestans; settings: 168 h, read-out: Fungal growth at 31 ppm (%) PHYTIN
[3] = tested on: Fusarium culmorum; settings: 168 h

Which results are given for `CNC(=O)/C(=N/OC)c1cccc(C)c1CO/N=C(\C)c1cccc(C(F)(F)F)n1` [Example 2]?
activity at 31 ppm [1]: 12%; activity at 31 ppm [2]: 18%; activity at 31 ppm [3]: 7%

What does the source list for `CO/N=C(/C(=O)OC)c1cccc(C)c1CO/N=C(\C)c1cc(C(F)(F)F)ccn1` [Example 4, Methyl (2E)-2-methoxyimino-2-[3-methyl-2-[[(E)-1-[4-(trifluoromethyl)-2-pyridyl]ethylideneamino]oxymethyl]phenyl]acetate]?
activity at 31 ppm [1]: 11%; activity at 31 ppm [3]: 10%

With `CNC(=O)/C(=N/OC)c1cccc(C)c1CO/N=C(\C)c1cc(C(F)(F)F)ccn1` [Example 5, (2E)-2-methoxyimino-N-methyl-2-[3-methyl-2-[[(E)-1-[4-(trifluoromethyl)-2-pyridyl]-ethylideneamino]oxymethyl]phenyl]acetamide] as the compound, how does the activity at 31 ppm [1] read?
Its activity at 31 ppm is 19%.

And the activity at 31 ppm [2]?
Its activity at 31 ppm is 20%.

And the activity at 31 ppm [3]?
Its activity at 31 ppm is 8%.

What does the source list for `CO/N=C(/C(=O)OC)c1cccc(C)c1CO/N=C(\C)c1cccc(C(F)F)n1` [Example 9]?
activity at 31 ppm [1]: 4%; activity at 31 ppm [2]: 5%

Which activity at 31 ppm [1] does the source give for `CNC(=O)/C(=N/OC)c1cccc(C)c1CO/N=C(\C)c1cccc(C(F)F)n1` [Example 10] here?
Its activity at 31 ppm is 2%.

What about the activity at 31 ppm [2] of the same compound?
The activity at 31 ppm was 0%.

What about the activity at 31 ppm [3] of the same compound?
Its activity at 31 ppm is 9%.

Which results are given for `CO/N=C(/C(=O)OC)c1cccc(C)c1CO/N=C(\C)c1ncccc1C(F)F` [Example 24]?
activity at 31 ppm [1]: 0%; activity at 31 ppm [2]: 18%

How did the activity at 31 ppm [1] turn out when `CO/N=C(/C(=O)OC)c1cccc(C)c1CO/N=C(\C)c1cc(C)ccn1` [Example 25] was run?
The activity at 31 ppm was 0%.

And the activity at 31 ppm [2]?
Its activity at 31 ppm is 0%.

How did the activity at 31 ppm [1] turn out when `CO/N=C(/C(=O)OC)c1cccc(C)c1CO/N=C(\C)c1ncccc1C(F)(F)F` [Example 27, Methyl (2E)-2-methoxyimino-2-[3-methyl-2-[[(E)-1-[3-(trifluoromethyl)-2-pyridyl]-ethylideneamino]oxymethyl]phenyl]acetate] was run?
Its activity at 31 ppm is 5%.

What does the source list for `CO/N=C(\C)c1ccnc(/C(C)=N/OCc2c(C)cccc2/C(=N\OC)C(=O)OC)c1` [Example 29, Methyl (2E)-2-methoxyimino-2-[2-[[(E)-1-[4-[(E)-N-methoxy-C-methyl-carbonimidoyl]-2-pyridyl]ethylideneamino]oxymethyl]-3-methyl-phenyl]acetate]?
activity at 31 ppm [1]: 0%; activity at 31 ppm [2]: 1%; activity at 31 ppm [3]: 12%

Which activity at 31 ppm [1] does the source give for `CNC(=O)/C(=N/OC)c1cccc(C)c1CO/N=C(\C)c1cc(/C(C)=N/OC)ccn1` [Example 30, (2E)-2-Methoxyimino-2-[2-[[(E)-1-[4-[(E)-N-methoxy-C-methyl-carbonimidoyl]-2-pyridyl]ethylideneamino]oxymethyl]-3-methyl-phenyl]-N-methyl-acetamide] here?
The activity at 31 ppm was 2%.

What about the activity at 31 ppm [2] of the same compound?
Its activity at 31 ppm is 0%.

What about the activity at 31 ppm [3] of the same compound?
Its activity at 31 ppm is 10%.

`CO/N=C(\C)c1cccc(/C(C)=N/OCc2c(C)cccc2/C(=N\OC)C(=O)OC)n1` [Example 31] was tested. Which activity at 31 ppm [1] did it give?
The activity at 31 ppm was 13%.

How did the activity at 31 ppm [1] turn out when `CNC(=O)/C(=N/OC)c1cccc(C)c1CO/N=C(\C)c1ncccc1C(F)F` [Example 33] was run?
The activity at 31 ppm was 4%.

What about the activity at 31 ppm [2] of the same compound?
The activity at 31 ppm was 14%.

What about the activity at 31 ppm [3] of the same compound?
Its activity at 31 ppm is 11%.

What does the source list for `CO/N=C(/C(=O)OC)c1cccc(C)c1CO/N=C(\C)c1cc(C(F)F)ccn1` [Example 34]?
activity at 31 ppm [1]: 0%; activity at 31 ppm [2]: 1%; activity at 31 ppm [3]: 10%

What does the source list for `CNC(=O)/C(=N/OC)c1cccc(C)c1CO/N=C(\C)c1cc(C(F)F)ccn1` [Example 37]?
activity at 31 ppm [1]: 3%; activity at 31 ppm [2]: 0%; activity at 31 ppm [3]: 12%

`CNC(=O)/C(=N/OC)c1cccc(C)c1CO/N=C(\C)c1ncsc1C(F)(F)F` [Example 41] was tested. Which activity at 31 ppm [1] did it give?
The activity at 31 ppm was 2%.

What about the activity at 31 ppm [2] of the same compound?
The activity at 31 ppm was 0%.

And the activity at 31 ppm [3]?
Its activity at 31 ppm is 9%.

What does the source list for `CNC(=O)/C(=N/OC)c1cccc(C)c1CO/N=C(\C)c1cc(C(F)(F)F)cc(Cl)n1` [Example 43]?
activity at 31 ppm [1]: 13%; activity at 31 ppm [2]: 9%; activity at 31 ppm [3]: 14%

Which results are given for `CO/N=C(/C(=O)OC)c1cccc(C)c1CO/N=C(\C)c1cc(C(F)(F)F)cc(C)n1` [Example 46]?
activity at 31 ppm [1]: 0%; activity at 31 ppm [2]: 0%; activity at 31 ppm [3]: 1%

With `CO/N=C(/C(=O)OC)c1cccc(C)c1CO/N=C(\C)c1ccnc(C(F)(F)F)c1` [Example 47] as the compound, how does the activity at 31 ppm [1] read?
Its activity at 31 ppm is 0%.

And the activity at 31 ppm [2]?
The activity at 31 ppm was 0%.

And the activity at 31 ppm [3]?
Its activity at 31 ppm is 8%.

Which activity at 31 ppm [1] does the source give for `CO/N=C(/C(=O)OC)c1cccc(C)c1CO/N=C(\C)c1cc(C#N)ccn1` [Example 54] here?
Its activity at 31 ppm is 4%.

What about the activity at 31 ppm [2] of the same compound?
Its activity at 31 ppm is 2%.

What about the activity at 31 ppm [3] of the same compound?
Its activity at 31 ppm is 14%.

For `CNC(=O)/C(=N/OC)c1cccc(C)c1CO/N=C(\C)c1cc(C#N)ccn1` [Example 55], which activity at 31 ppm [1] is on record?
Its activity at 31 ppm is 8%.

And the activity at 31 ppm [2]?
The activity at 31 ppm was 0%.

What about the activity at 31 ppm [3] of the same compound?
Its activity at 31 ppm is 12%.

`CO/N=C(/C(=O)OC)c1cccc(C)c1CO/N=C(\C)c1cc(C(F)(F)F)nc(C)n1` [Example 57] was tested. Which activity at 31 ppm [1] did it give?
Its activity at 31 ppm is 14%.

And the activity at 31 ppm [2]?
The activity at 31 ppm was 2%.

And the activity at 31 ppm [3]?
Its activity at 31 ppm is 12%.

What does the source list for `CO/N=C(/C(=O)OC)c1cccc(C)c1CO/N=C(\C)c1cc(C#N)cc(Cl)n1` [Example 64]?
activity at 31 ppm [1]: 17%; activity at 31 ppm [2]: 21%

For `CO/N=C(/C(=O)OC)c1cccc(C)c1CO/N=C(\C)c1cccc(C)n1` [Example 65], which activity at 31 ppm [1] is on record?
Its activity at 31 ppm is 0%.

And the activity at 31 ppm [2]?
The activity at 31 ppm was 1%.

What does the source list for `CNC(=O)/C(=N/OC)c1cccc(C)c1CO/N=C(/c1cc(C(F)(F)F)ccn1)C1CC1` [Example 70, (2E)-2-[2-[[(E)-[cyclopropyl-[4-(trifluoromethyl)-2-pyridyl]methylene]amino]oxymethyl]-3-methyl-phenyl]-2-methoxyimino-N-methyl-acetamide]?
activity at 31 ppm [1]: 0%; activity at 31 ppm [2]: 0%; activity at 31 ppm [3]: 12%

How did the activity at 31 ppm [1] turn out when `CO/N=C(/C(=O)OC)c1cccc(C)c1CO/N=C(/c1cc(C(F)(F)F)ccn1)C1CC1` [Example 72, Methyl (2E)-2-[2-[[(E)-[cyclopropyl-[4-(trifluoromethyl)-2-pyridyl]methylene]amino]-oxymethyl]-3-methyl-phenyl]-2-methoxyimino-acetate] was run?
The activity at 31 ppm was 4%.

What about the activity at 31 ppm [2] of the same compound?
The activity at 31 ppm was 6%.

What about the activity at 31 ppm [3] of the same compound?
The activity at 31 ppm was 14%.

For `CO/N=C(/C(=O)OC)c1cccc(C)c1CO/N=C(\C)c1ncccc1F` [Example 74], which activity at 31 ppm [1] is on record?
Its activity at 31 ppm is 21%.

What about the activity at 31 ppm [2] of the same compound?
The activity at 31 ppm was 0%.

With `CO/N=C(/C(=O)OC)c1cccc(C)c1CO/N=C(\C)c1cncc(C(F)(F)F)c1` [Example 84, methyl (2E)-2-methoxyimino-2-[3-methyl-2-[[(E)-1-[5-(trifluoromethyl)-3-pyridyl]ethylideneamino]oxymethyl]phenyl]acetate] as the compound, how does the activity at 31 ppm [1] read?
Its activity at 31 ppm is 1%.

And the activity at 31 ppm [2]?
The activity at 31 ppm was 0%.

What about the activity at 31 ppm [3] of the same compound?
The activity at 31 ppm was 12%.

How did the activity at 31 ppm [1] turn out when `CO/N=C(/C(=O)OC)c1cccc(C)c1CO/N=C(\C)c1cnc(Cl)c(Cl)c1` [Example 87] was run?
The activity at 31 ppm was 1%.

And the activity at 31 ppm [2]?
Its activity at 31 ppm is 0%.

What about the activity at 31 ppm [3] of the same compound?
Its activity at 31 ppm is 17%.

Which results are given for `CNC(=O)/C(=N/OC)c1cccc(C)c1CO/N=C(\C)c1cnc(Cl)c(Cl)c1` [Example 88]?
activity at 31 ppm [1]: 9%; activity at 31 ppm [2]: 0%; activity at 31 ppm [3]: 14%

For `CNC(=O)/C(=N/OC)c1cccc(C)c1CO/N=C(\C)c1cccc(SC)n1` [Example 93], which activity at 31 ppm [1] is on record?
The activity at 31 ppm was 13%.

And the activity at 31 ppm [2]?
The activity at 31 ppm was 0%.

And the activity at 31 ppm [3]?
The activity at 31 ppm was 17%.

Which activity at 31 ppm [1] does the source give for `CO/N=C(/C(=O)OC)c1cccc(C)c1CO/N=C(\C)c1ccnc(SC)c1` [Example 94] here?
The activity at 31 ppm was 1%.

What about the activity at 31 ppm [2] of the same compound?
The activity at 31 ppm was 1%.

What about the activity at 31 ppm [3] of the same compound?
The activity at 31 ppm was 15%.

For `CO/N=C(/C(=O)OC)c1cccc(C)c1CO/N=C(\C)c1cnc(C(F)(F)F)cn1` [Example 96, Methyl (2E)-2-methoxyimino-2-[3-methyl-2-[[(E)-1-[5-(trifluoromethyl)pyrazin-2-yl]ethylideneamino]oxymethyl]phenyl]acetate], which activity at 31 ppm [1] is on record?
The activity at 31 ppm was 18%.

What about the activity at 31 ppm [2] of the same compound?
Its activity at 31 ppm is 0%.

What about the activity at 31 ppm [3] of the same compound?
Its activity at 31 ppm is 13%.

Which activity at 31 ppm [1] does the source give for `CO/N=C(/C(=O)OC)c1cccc(C)c1CO/N=C(\C)c1cccc(F)n1` [Example 106] here?
The activity at 31 ppm was 13%.

What about the activity at 31 ppm [2] of the same compound?
The activity at 31 ppm was 0%.

Which activity at 31 ppm [1] does the source give for `CNC(=O)/C(=N/OC)c1cccc(C)c1CO/N=C(\C)c1ncnc(Cl)c1F` [Example 108] here?
Its activity at 31 ppm is 0%.

And the activity at 31 ppm [2]?
The activity at 31 ppm was 0%.

And the activity at 31 ppm [3]?
The activity at 31 ppm was 8%.

With `CO/N=C(/C(=O)OC)c1cccc(C)c1CO/N=C(\C)c1cc(C(F)(F)F)ncn1` [Example 113, Methyl (2E)-2-methoxyimino-2-[3-methyl-2-[[(E)-1-[6-(trifluoromethyl)pyrimidin-4-yl]ethylideneamino]oxymethyl]phenyl]acetate] as the compound, how does the activity at 31 ppm [1] read?
Its activity at 31 ppm is 0%.

And the activity at 31 ppm [2]?
Its activity at 31 ppm is 0%.

And the activity at 31 ppm [3]?
Its activity at 31 ppm is 1%.

With `CO/N=C(/C(=O)OC)c1cccc(C)c1CO/N=C(\C)c1cccnc1` [Example 131] as the compound, how does the activity at 31 ppm [1] read?
The activity at 31 ppm was 17%.

What about the activity at 31 ppm [2] of the same compound?
Its activity at 31 ppm is 0%.
